{"source": "patent US7091202B2", "about": "“4-arylspirocycloalkyl-2-aminopyrimidine carboxamide KCNQ potassium channel modulators” (Bristol-Myers Squibb Company, priority 2004, dated 2006)"}
{"target": "T1, hQ23 (HEK-293 cell line stably transfected with one of the members of the KCNQ family) (Homo sapiens, UniProt O43525+O43526)", "T1 construct": "expressed in transfected cells; host or cells: HEK-293, stably transfected", "T1 sequence (O43526 whole entry)": "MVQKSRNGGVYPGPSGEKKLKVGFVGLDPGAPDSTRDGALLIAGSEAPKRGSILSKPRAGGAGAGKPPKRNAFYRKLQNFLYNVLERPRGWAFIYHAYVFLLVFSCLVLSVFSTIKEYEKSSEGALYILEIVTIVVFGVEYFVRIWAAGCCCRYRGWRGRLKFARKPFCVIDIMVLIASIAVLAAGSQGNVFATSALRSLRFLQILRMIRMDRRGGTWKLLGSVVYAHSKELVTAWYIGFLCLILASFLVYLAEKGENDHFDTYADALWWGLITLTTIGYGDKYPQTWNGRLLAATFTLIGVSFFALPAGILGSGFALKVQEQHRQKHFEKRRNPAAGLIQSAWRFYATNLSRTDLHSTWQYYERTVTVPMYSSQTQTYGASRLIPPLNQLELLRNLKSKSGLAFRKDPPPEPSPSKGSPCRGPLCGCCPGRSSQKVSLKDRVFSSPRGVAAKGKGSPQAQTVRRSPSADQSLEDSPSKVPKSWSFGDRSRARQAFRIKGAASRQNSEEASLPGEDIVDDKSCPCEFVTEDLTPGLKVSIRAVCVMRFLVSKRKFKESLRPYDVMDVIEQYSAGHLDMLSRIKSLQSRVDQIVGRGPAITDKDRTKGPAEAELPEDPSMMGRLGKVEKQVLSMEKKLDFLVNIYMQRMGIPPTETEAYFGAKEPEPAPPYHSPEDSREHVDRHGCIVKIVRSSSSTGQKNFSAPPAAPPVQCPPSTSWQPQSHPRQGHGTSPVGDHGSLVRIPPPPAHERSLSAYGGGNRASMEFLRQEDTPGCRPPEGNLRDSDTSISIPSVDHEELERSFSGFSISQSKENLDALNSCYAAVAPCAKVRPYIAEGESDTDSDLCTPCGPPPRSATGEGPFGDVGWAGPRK", "T1 sequence (O43525 whole entry)": "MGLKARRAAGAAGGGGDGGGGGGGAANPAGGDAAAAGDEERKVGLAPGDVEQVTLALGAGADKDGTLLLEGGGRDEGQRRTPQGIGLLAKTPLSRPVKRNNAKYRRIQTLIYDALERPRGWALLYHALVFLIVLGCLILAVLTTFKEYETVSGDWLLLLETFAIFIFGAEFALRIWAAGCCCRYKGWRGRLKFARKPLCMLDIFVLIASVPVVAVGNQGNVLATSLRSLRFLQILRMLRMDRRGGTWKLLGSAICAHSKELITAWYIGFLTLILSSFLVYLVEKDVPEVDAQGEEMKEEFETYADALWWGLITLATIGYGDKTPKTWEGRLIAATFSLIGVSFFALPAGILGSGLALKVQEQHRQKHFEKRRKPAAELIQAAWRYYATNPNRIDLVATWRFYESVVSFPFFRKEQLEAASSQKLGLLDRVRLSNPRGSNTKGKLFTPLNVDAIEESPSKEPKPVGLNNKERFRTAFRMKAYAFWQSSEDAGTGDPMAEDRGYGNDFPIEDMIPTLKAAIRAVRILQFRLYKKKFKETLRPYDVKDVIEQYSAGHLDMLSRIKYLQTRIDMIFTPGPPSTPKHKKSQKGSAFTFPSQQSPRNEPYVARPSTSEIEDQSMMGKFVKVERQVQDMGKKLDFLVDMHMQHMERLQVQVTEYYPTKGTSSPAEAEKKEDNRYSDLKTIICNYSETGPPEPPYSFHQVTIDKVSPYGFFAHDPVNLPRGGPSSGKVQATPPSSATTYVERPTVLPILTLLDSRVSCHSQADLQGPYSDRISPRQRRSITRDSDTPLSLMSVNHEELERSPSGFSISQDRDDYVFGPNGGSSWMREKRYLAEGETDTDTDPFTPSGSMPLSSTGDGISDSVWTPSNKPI", "test": "Thallium flux assay for KCNQ channel blockers (FLIPR, BTC dye)", "assay_type": "cell-based", "settings": "Table 2; thallium flux, HEK-293", "outline": "(§1)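 HEK-293 cells stably expressing a KCNQ member, loaded with BTC-AM (2 μM) in chloride-free buffer, pH 7.3; compounds added at 1% DMSO, then Tl2SO4 stimulus on FLIPR (488/540 nm, 60 s). Minimal active concentration set at ≥4 SD above negative control; IC50 from 10-point 1:3 series, single-site logistic fit versus the positive-control blocker.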", "units": {"EC50": "µM"}}
{"smiles": "CC1CCN(c2ncc(C(=O)NC(C)c3ccc(F)cc3)c(C3(c4ccccc4)CC3)n2)CC1", "note": "(centres unmarked) [Example 51, 5-pyrimidinecarboxamide, N-[1-(4-fluorophenyl)ethyl]-2-(4-methyl-1-piperidinyl)-4-(1-phenylcyclopropyl)-]", "EC50": 0.672}
{"smiles": "CC1CCC(Nc2ncc(C(=O)NCc3cc(F)cc(C(F)(F)F)c3)c(C3(c4ccccc4)CC3)n2)CC1", "note": "(centres unmarked) [Example 44, 5-pyrimidinecarboxamide, N-[[3-fluoro-5-(trifluoromethyl)phenyl]methyl]-2-[(4-methylcyclohexyl)amino]-4-(1-phenylcyclopropyl)-]", "EC50": 0.044}
{"target": "T1, hQ23 (HEK-293 cell line stably transfected with one of the members of the KCNQ family)", "test": "Thallium flux assay for KCNQ channel blockers (FLIPR, BTC dye)", "assay_type": "cell-based", "settings": "Table 3; thallium flux, HEK-293", "outline": "as §1", "units": {"EC50": "µM"}}
{"smiles": "O=C(NCc1ccc2c(c1)OCO2)c1cnc(N2CCCC2)nc1C1(c2ccc(Cl)cc2)CCC1", "note": "[Example 56, 5-pyrimidinecarboxamide, N-(1,3-benzodioxol-5-ylmethyl)-4-[1-(4-chlorophenyl)cyclobutyl]-2-(1-pyrrolidinyl)-]", "EC50": 0.719}
{"target": "T1, hQ23 (HEK-293 cell line stably transfected with one of the members of the KCNQ family)", "test": "Thallium flux assay for KCNQ channel blockers (FLIPR, BTC dye)", "assay_type": "cell-based", "settings": "hQ23 cells, thallium flux", "outline": "as §1", "units": {"EC50": "µM"}}
{"smiles": "CC1CCCN(c2ncc(C(=O)NCc3ccc(Cl)c(Cl)c3)c(C3(c4ccccc4)CCCC3)n2)C1", "note": "(centres unmarked) [Example 107, 5-pyrimidinecarboxamide, N-[(3,4-dichlorophenyl)methyl]-2-(3-methyl-1-piperidinyl)-4-(1-phenylcyclopentyl)-]", "EC50": 0.111}
{"smiles": "O=C(NCc1ccc(Cl)cc1Cl)c1cnc(NC2CCCC2)nc1C1(c2ccccc2)CCCC1", "note": "[Example 115, 5-pyrimidinecarboxamide, 2-(cyclopentylamino)-N-[(2,4-dichlorophenyl)methyl]-4-(1-phenylcyclopentyl)-]", "EC50": 0.136}
{"smiles": "CCC(C)Nc1ncc(C(=O)NCc2ccc(Cl)cc2Cl)c(C2(c3ccccc3)CCCC2)n1", "note": "(centres unmarked) [Example 114, 5-pyrimidinecarboxamide, N-[(2,4-dichlorophenyl)methyl]-2-[(1-methylpropyl)amino]-4-(1-phenylcyclopentyl)-]", "EC50": 0.102}
{"smiles": "CN1CCC(N(C)c2ncc(C(=O)NCc3ccc(Cl)cc3Cl)c(C3(c4ccc(Cl)cc4)CCCC3)n2)CC1", "note": "[Example 182, 5-pyrimidinecarboxamide, 4-[1-(4-chlorophenyl)cyclopentyl]-N-[(2,4-dichlorophenyl)methyl]-2-[methyl(1-methyl-4-piperidinyl)amino]-]", "EC50": 0.067}
{"smiles": "CC(NC(=O)c1cnc(N2CCN(C)CC2)nc1C1(c2ccc(Cl)cc2)CCCC1)c1cccc2ccccc12", "note": "(centres unmarked) [Example 159, 5-pyrimidinecarboxamide, 4-[1-(4-chlorophenyl)cyclopentyl]-2-(4-methyl-1-piperazinyl)-N-[1-(1-naphthalenyl)ethyl]-]", "EC50": 0.643}
{"smiles": "CC(NC(=O)c1cnc(N2CCCC2)nc1C1(c2ccccc2)CCCC1)c1cccc2ccccc12", "note": "(centres unmarked) [Example 96, 5-pyrimidinecarboxamide, N-[1-(1-naphthalenyl)ethyl]-4-(1-phenylcyclopentyl)-2-(1-pyrrolidinyl)-]", "EC50": 0.148}
{"smiles": "CCN(C(=O)c1cnc(N2CCCC2)nc1C1(c2ccc(F)cc2)CCCC1)C1CCCCC1", "note": "[Example 213, 5-pyrimidinecarboxamide, N-cyclohexyl-N-ethyl-4-[1-(4-fluorophenyl)cyclopentyl]-2-(1-pyrrolidinyl)-]", "EC50": 0.68}
{"smiles": "CC1CCN(c2ncc(C(=O)NCc3cccc4ccccc34)c(C3(c4ccc(Cl)cc4)CCCC3)n2)CC1", "note": "[Example 170, 5-pyrimidinecarboxamide, 4-[1-(4-chlorophenyl)cyclopentyl]-2-(4-methyl-1-piperidinyl)-N-(1-naphthalenylmethyl)-]", "EC50": 0.01}
{"smiles": "CC(NC(=O)c1cnc(NC2CCCC2)nc1C1(c2ccc(Cl)cc2)CCCC1)c1cccc2ccccc12", "note": "(centres unmarked) [Example 164, 5-pyrimidinecarboxamide, 4-[1-(4-chlorophenyl)cyclopentyl]-2-(cyclopentylamino)-N-[1-(1-naphthalenyl)ethyl]-]", "EC50": 0.01}
{"smiles": "CN(C)CCNc1ncc(C(=O)NCc2cc(F)cc(C(F)(F)F)c2)c(C2(c3ccc(Cl)cc3)CCCC2)n1", "note": "[Example 195, 5-pyrimidinecarboxamide, 4-[1-(4-chlorophenyl)cyclopentyl]-2-[[2-(dimethylamino)ethyl]amino]-N-[[3-fluoro-5-(trifluoromethyl)phenyl]methyl]-]", "EC50": 0.634}
{"smiles": "CC(NC(=O)c1cnc(NCCN(C)C)nc1C1(c2ccc(Cl)cc2)CCCC1)c1cccc2ccccc12", "note": "(centres unmarked) [Example 163, 5-pyrimidinecarboxamide, 4-[1-(4-chlorophenyl)cyclopentyl]-2-[[2-(dimethylamino)ethyl]amino]-N-[1-(1-naphthalenyl)ethyl]-]", "EC50": 0.705}
{"smiles": "CC1CCN(c2ncc(C(=O)NCc3cccc4ccccc34)c(C3(c4ccccc4)CCCC3)n2)CC1", "note": "[Example 104, 5-pyrimidinecarboxamide, 2-(4-methyl-1-piperidinyl)-N-(1-naphthalenylmethyl)-4-(1-phenylcyclopentyl)-]", "EC50": 0.01}
{"smiles": "CCN(C(=O)c1cnc(N2CCC(C)CC2)nc1C1(c2ccc(F)cc2)CCCC1)C1CCCCC1", "note": "[Example 215, 5-pyrimidinecarboxamide, N-cyclohexyl-N-ethyl-4-[1-(4-fluorophenyl)cyclopentyl]-2-(4-methyl-1-piperidinyl)-]", "EC50": 0.922}
{"smiles": "CN(CCc1ccccc1)C(=O)c1cnc(N2CCCC2)nc1C1(c2ccc(Cl)cc2)CCCC1", "note": "[Example 147, 5-pyrimidinecarboxamide, 4-[1-(4-chlorophenyl)cyclopentyl]-N-methyl-N-(2-phenylethyl)-2-(1-pyrrolidinyl)-]", "EC50": 0.169}
{"smiles": "CC1CCN(c2ncc(C(=O)NC(C)c3cccc4ccccc34)c(C3(c4ccc(Cl)cc4)CCCC3)n2)CC1", "note": "(centres unmarked) [Example 161, 5-pyrimidinecarboxamide, 4-[1-(4-chlorophenyl)cyclopentyl]-2-(4-methyl-1-piperidinyl)-N-[1-(1-naphthalenyl)ethyl]-]", "EC50": 0.01}
{"smiles": "CC1CCN(c2ncc(C(=O)NCc3cc(F)cc(C(F)(F)F)c3)c(C3(c4ccc(Cl)cc4)CCCC3)n2)CC1", "note": "[Example 193, 5-pyrimidinecarboxamide, 4-[1-(4-chlorophenyl)cyclopentyl]-N-[[3-fluoro-5-(trifluoromethyl)phenyl]methyl]-2-(4-methyl-1-piperidinyl)-]", "EC50": 0.012}
{"smiles": "CCN(C(=O)c1cnc(N2CCCC(C)C2)nc1C1(c2ccc(F)cc2)CCCC1)C1CCCCC1", "note": "(centres unmarked) [Example 214, 5-pyrimidinecarboxamide, N-cyclohexyl-N-ethyl-4-[1-(4-fluorophenyl)cyclopentyl]-2-(3-methyl-1-piperidinyl)-]", "EC50": 0.575}
{"smiles": "O=C(NCc1cccc2ccccc12)c1cnc(N2CCCC2)nc1C1(c2ccc(Cl)cc2)CCCC1", "note": "[Example 167, 5-pyrimidinecarboxamide, 4-[1-(4-chlorophenyl)cyclopentyl]-N-(1-naphthalenylmethyl)-2-(1-pyrrolidinyl)-]", "EC50": 0.142}
{"smiles": "CC1CCC(Nc2ncc(C(=O)NCc3ccc(Cl)c(Cl)c3)c(C3(c4ccccc4)CCCC3)n2)CC1", "note": "(centres unmarked) [Example 106, 5-pyrimidinecarboxamide, N-[(3,4-dichlorophenyl)methyl]-2-[(4-methylcyclohexyl)amino]-4-(1-phenylcyclopentyl)-]", "EC50": 0.13}
{"smiles": "CCN(C(=O)c1cnc(NC2CCCC2)nc1C1(c2ccc(F)cc2)CCCC1)C1CCCCC1", "note": "[Example 217, 5-pyrimidinecarboxamide, N-cyclohexyl-2-(cyclopentylamino)-N-ethyl-4-[1-(4-fluorophenyl)cyclopentyl]-]", "EC50": 0.482}
{"smiles": "CC1CCC(Nc2ncc(C(=O)NC(C)c3ccc(F)cc3)c(C3(c4ccccc4)CCCC3)n2)CC1", "note": "(centres unmarked) [Example 131, 5-pyrimidinecarboxamide, N-[1-(4-fluorophenyl)ethyl]-2-[(4-methylcyclohexyl)amino]-4-(1-phenylcyclopentyl)-]", "EC50": 0.158}
{"smiles": "CC1CCCN(c2ncc(C(=O)NCc3cccc4ccccc34)c(C3(c4ccc(Cl)cc4)CCCC3)n2)C1", "note": "(centres unmarked) [Example 169, 5-pyrimidinecarboxamide, 4-[1-(4-chlorophenyl)cyclopentyl]-2-(3-methyl-1-piperidinyl)-N-(1-naphthalenylmethyl)-]", "EC50": 0.01}
{"smiles": "CN(Cc1ccccc1)C(=O)c1cnc(NC2CCCC2)nc1C1(c2ccccc2)CCCC1", "note": "[Example 71, 5-pyrimidinecarboxamide, 2-(cyclopentylamino)-N-methyl-4-(1-phenylcyclopentyl)-N-(phenylmethyl)-]", "EC50": 0.718}
{"target": "T1, hQ23 (HEK-293 cell line stably transfected with one of the members of the KCNQ family)", "test": "Thallium flux assay for KCNQ channel blockers (FLIPR, BTC dye)", "assay_type": "cell-based", "settings": "hQ23 cells, thallium flux assay", "outline": "as §1", "units": {"EC50": "µM"}}
{"smiles": "CC1CCCN(c2ncc(C(=O)NC(C)c3cccc4ccccc34)c(C3(c4ccc(F)cc4)CCCC3)n2)C1", "note": "(centres unmarked) [Example 244, 5-pyrimidinecarboxamide, 4-[1-(4-fluorophenyl)cyclopentyl]-2-(3-methyl-1-piperidinyl)-N-[1-(1-naphthalenyl)ethyl]-]", "EC50": 0.01}
{"smiles": "CC(NC(=O)c1cnc(N2CCCC2)nc1C1(c2ccc(F)cc2)CCCC1)c1cccc2ccccc12", "note": "(centres unmarked) [Example 242, 5-pyrimidinecarboxamide, 4-[1-(4-fluorophenyl)cyclopentyl]-N-[1-(1-naphthalenyl)ethyl]-2-(1-pyrrolidinyl)-]", "EC50": 0.034}
{"smiles": "CC(NC(=O)c1cnc(NC2CCCC2)nc1C1(c2ccc(F)cc2)CCCC1)c1ccc(F)cc1", "note": "(centres unmarked) [Example 287, 5-pyrimidinecarboxamide, 2-(cyclopentylamino)-4-[1-(4-fluorophenyl)cyclopentyl]-N-[1-(4-fluorophenyl)ethyl]-]", "EC50": 0.573}
{"smiles": "CCC(C)Nc1ncc(C(=O)NC(C)c2ccc(F)cc2)c(C2(c3ccc(F)cc3)CCCC2)n1", "note": "(centres unmarked) [Example 286, 5-pyrimidinecarboxamide, 4-[1-(4-fluorophenyl)cyclopentyl]-N-[1-(4-fluorophenyl)ethyl]-2-[(1-methylpropyl)amino]-]", "EC50": 0.852}
{"smiles": "CC1CCCN(c2ncc(C(=O)NCc3ccc(Cl)cc3Cl)c(C3(c4ccc(F)cc4)CCCC3)n2)C1", "note": "(centres unmarked) [Example 262, 5-pyrimidinecarboxamide, N-[(2,4-dichlorophenyl)methyl]-4-[1-(4-fluorophenyl)cyclopentyl]-2-(3-methyl-1-piperidinyl)-]", "EC50": 0.01}
{"smiles": "CC1CCN(c2ncc(C(=O)NC(C)c3ccc(F)cc3)c(C3(c4ccc(F)cc4)CCCC3)n2)CC1", "note": "(centres unmarked) [Example 285, 5-pyrimidinecarboxamide, 4-[1-(4-fluorophenyl)cyclopentyl]-N-[1-(4-fluorophenyl)ethyl]-2-(4-methyl-1-piperidinyl)-]", "EC50": 0.095}
